Test results taken from the kinase profiling compilation of Christmann-Franck et al. (2016).

Experiments:
Assay in all cases: KINOMEscan competition binding
Conditions in all cases: compound 10.0 µM
AAK1 (human) = AAK1 (human) (UniProt Q2M2I8)
ACVR1B (human) = ACVR1B (human) (UniProt P36896)
ACVR2A (human) = ACVR2A (human) (UniProt P27037)
AKT1 (human) = AKT1 (human) (UniProt P31749)
AXL (human) = AXL (human) (UniProt P30530)
CAMKK1 (human) = CAMKK1 (human) (UniProt Q8N5S9)
CDC42BPA (human) = CDC42BPA (human) (UniProt Q5VT25)
CDK14 (human) = CDK14 (human) (UniProt O94921)
CDK5 (human) = CDK5 (human) (UniProt Q00535)
CSNK1D (human) = CSNK1D (human) (UniProt P48730)
DCLK1 (human) = DCLK1 (human) (UniProt O15075)
DDR1 (human) = DDR1 (human) (UniProt Q08345)
EPHA6 (human) = EPHA6 (human) (UniProt Q9UF33)
EPHB3 (human) = EPHB3 (human) (UniProt P54753)
EPHB4 (human) = EPHB4 (human) (UniProt P54760)
FES (human) = FES (human) (UniProt P07332)
IGF1R (human) = IGF1R (human) (UniProt P08069)
IKBKB (human) = IKBKB (human) (UniProt O14920)
LRRK2 (human) = LRRK2 (human) (UniProt Q5S007)
MAP2K7 (human) = MAP2K7 (human) (UniProt O14733)
MAP3K13 (human) = MAP3K13 (human) (UniProt O43283)
MAPK8 (human) = MAPK8 (human) (UniProt P45983)
MAST1 (human) = MAST1 (human) (UniProt Q9Y2H9)
MET (human) = MET (human) (UniProt P08581)
MYLK2 (human) = MYLK2 (human) (UniProt Q9H1R3)
NEK5 (human) = NEK5 (human) (UniProt Q6P3R8)
NUAK1 (human) = NUAK1 (human) (UniProt O60285)
NUAK2 (human) = NUAK2 (human) (UniProt Q9H093)
PAK6 (human) = PAK6 (human) (UniProt Q9NQU5)
PKN2 (human) = PKN2 (human) (UniProt Q16513)
PLK4 (human) = PLK4 (human) (UniProt O00444)
PRKCE (human) = PRKCE (human) (UniProt Q02156)
PRKD2 (human) = PRKD2 (human) (UniProt Q9BZL6)
PRKD3 (human) = PRKD3 (human) (UniProt O94806)
RIOK2 (human) = RIOK2 (human) (UniProt Q9BVS4)
RPS6KA2 KD1 (human) = RPS6KA2 KD1 (human) (UniProt Q15349)
SIK3 (human) = SIK3 (human) (UniProt Q9Y2K2)
STK32C (human) = STK32C (human) (UniProt Q86UX6)
TBK1 (human) = TBK1 (human) (UniProt Q9UHD2)
TSSK1B (human) = TSSK1B (human) (UniProt Q9BXA7)

Chain of ACVR1B (human) (P36896 whole entry, looked up): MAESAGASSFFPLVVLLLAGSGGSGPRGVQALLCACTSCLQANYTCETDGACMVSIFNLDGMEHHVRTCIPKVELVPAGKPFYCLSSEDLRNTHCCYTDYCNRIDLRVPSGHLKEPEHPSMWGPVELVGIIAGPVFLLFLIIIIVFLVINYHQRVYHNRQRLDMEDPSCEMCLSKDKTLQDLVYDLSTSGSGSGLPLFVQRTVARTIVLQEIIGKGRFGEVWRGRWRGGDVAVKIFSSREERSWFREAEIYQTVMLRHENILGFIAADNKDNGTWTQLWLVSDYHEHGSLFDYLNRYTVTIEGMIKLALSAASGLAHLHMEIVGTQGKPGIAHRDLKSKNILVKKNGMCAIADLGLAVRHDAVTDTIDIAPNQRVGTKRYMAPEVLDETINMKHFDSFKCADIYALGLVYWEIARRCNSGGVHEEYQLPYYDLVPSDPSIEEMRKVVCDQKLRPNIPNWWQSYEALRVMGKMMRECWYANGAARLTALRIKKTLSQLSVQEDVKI
Chain of PLK4 (human) (O00444 whole entry, looked up): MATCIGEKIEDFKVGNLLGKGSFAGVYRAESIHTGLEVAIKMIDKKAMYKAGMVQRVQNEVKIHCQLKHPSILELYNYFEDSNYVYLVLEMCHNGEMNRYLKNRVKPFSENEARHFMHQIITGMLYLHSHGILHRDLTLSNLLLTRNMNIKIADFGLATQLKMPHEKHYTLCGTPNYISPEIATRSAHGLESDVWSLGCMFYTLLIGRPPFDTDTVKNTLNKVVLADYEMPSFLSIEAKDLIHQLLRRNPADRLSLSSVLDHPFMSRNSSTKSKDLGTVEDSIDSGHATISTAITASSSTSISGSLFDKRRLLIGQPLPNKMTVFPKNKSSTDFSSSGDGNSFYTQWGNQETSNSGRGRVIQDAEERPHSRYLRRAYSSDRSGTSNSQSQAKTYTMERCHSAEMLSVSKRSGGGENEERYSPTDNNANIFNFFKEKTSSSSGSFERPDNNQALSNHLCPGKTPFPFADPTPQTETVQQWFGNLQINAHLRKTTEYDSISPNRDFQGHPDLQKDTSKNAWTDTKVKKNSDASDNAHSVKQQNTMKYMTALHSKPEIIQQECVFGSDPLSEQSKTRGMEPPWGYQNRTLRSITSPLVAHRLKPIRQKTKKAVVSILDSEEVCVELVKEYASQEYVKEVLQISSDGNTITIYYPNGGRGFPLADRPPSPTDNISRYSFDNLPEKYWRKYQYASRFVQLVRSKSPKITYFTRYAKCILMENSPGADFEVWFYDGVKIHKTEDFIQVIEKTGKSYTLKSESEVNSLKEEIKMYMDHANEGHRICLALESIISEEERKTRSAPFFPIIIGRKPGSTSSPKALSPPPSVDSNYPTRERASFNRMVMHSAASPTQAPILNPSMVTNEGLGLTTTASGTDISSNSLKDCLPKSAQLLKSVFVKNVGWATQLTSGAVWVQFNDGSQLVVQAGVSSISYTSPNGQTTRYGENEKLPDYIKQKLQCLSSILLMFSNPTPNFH
Chain of DCLK1 (human) (O15075 whole entry, looked up): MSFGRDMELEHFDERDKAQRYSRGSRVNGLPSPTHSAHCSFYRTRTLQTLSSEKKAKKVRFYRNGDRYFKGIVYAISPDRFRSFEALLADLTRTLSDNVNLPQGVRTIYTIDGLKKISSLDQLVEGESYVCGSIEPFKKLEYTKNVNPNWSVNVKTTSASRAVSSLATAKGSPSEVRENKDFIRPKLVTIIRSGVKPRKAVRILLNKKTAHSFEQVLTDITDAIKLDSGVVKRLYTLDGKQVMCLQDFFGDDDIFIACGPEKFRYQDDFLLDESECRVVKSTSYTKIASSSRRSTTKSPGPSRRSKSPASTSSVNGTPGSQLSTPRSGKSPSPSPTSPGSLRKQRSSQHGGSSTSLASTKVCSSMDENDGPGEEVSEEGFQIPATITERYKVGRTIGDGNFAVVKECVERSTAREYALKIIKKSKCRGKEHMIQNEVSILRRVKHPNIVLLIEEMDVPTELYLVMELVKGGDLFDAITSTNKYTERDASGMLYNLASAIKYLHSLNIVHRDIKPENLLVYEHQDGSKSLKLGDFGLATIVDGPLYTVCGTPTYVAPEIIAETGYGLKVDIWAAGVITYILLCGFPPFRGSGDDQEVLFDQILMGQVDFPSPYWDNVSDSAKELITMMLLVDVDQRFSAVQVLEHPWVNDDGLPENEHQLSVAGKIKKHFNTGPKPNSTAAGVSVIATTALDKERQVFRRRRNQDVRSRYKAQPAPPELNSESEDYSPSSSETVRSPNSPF
Chain of PKN2 (human) (Q16513 whole entry, looked up): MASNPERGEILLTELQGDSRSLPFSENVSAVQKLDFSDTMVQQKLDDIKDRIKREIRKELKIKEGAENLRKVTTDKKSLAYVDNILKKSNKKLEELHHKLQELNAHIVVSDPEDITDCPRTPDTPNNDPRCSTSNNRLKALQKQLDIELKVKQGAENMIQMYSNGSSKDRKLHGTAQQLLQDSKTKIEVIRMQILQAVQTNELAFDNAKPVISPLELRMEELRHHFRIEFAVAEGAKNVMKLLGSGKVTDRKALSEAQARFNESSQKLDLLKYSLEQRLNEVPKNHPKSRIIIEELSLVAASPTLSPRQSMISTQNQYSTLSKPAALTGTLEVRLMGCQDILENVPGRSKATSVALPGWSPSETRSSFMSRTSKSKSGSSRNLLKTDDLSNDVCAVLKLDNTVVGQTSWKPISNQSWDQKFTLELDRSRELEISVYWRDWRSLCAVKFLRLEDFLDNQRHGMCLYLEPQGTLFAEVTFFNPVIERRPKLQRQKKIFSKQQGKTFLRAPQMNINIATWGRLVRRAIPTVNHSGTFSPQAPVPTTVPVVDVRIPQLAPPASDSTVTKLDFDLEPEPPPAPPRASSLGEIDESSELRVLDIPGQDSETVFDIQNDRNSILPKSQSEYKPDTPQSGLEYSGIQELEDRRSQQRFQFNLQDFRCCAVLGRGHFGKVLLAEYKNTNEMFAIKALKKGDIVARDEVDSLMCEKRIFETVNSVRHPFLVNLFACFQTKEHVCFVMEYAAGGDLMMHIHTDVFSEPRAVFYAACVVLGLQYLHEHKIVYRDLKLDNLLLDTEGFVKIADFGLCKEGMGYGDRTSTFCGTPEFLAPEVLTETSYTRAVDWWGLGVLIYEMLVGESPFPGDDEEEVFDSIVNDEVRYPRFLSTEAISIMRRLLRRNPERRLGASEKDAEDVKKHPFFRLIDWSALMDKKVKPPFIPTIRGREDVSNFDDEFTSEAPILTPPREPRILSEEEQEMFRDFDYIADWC
Chain of PRKD3 (human) (O94806 whole entry, looked up): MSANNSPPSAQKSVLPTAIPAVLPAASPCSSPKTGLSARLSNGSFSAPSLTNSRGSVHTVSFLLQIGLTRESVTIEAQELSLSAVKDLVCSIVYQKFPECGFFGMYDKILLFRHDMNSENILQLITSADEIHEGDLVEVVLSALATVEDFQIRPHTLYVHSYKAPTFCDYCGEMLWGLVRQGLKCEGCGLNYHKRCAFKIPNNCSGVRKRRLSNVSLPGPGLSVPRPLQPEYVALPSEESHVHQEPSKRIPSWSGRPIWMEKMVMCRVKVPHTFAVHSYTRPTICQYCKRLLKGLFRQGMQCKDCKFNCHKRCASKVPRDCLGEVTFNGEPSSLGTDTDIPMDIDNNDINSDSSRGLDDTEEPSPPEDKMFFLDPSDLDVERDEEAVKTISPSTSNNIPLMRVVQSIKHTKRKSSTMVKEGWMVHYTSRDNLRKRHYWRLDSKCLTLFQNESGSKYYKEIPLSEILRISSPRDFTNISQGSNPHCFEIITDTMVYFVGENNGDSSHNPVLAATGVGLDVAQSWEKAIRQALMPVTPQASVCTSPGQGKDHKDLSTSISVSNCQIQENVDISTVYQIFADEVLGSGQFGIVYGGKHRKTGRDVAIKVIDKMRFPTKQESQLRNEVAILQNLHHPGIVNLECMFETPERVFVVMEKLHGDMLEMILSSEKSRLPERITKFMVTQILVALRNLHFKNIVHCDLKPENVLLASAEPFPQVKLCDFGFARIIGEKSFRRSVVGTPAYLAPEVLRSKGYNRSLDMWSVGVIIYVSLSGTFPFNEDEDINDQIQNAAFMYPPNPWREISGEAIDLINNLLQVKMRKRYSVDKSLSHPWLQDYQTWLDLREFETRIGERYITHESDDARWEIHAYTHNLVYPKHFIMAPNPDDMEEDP
Chain of CAMKK1 (human) (Q8N5S9 whole entry, looked up): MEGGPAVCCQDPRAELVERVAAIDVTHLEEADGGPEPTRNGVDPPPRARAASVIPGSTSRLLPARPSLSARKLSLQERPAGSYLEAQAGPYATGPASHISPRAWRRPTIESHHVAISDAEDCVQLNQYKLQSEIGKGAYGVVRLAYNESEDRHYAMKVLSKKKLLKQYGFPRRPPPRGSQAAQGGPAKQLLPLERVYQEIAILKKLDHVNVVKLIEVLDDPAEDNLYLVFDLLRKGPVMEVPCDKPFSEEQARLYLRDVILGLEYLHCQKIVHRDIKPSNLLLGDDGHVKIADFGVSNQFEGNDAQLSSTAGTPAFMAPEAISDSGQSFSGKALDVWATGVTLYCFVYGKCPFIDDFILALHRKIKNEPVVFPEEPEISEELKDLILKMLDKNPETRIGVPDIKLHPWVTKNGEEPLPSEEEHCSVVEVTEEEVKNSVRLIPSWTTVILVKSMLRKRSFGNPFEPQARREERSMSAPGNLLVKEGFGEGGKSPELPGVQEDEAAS
Chain of AKT1 (human) (P31749 whole entry, looked up): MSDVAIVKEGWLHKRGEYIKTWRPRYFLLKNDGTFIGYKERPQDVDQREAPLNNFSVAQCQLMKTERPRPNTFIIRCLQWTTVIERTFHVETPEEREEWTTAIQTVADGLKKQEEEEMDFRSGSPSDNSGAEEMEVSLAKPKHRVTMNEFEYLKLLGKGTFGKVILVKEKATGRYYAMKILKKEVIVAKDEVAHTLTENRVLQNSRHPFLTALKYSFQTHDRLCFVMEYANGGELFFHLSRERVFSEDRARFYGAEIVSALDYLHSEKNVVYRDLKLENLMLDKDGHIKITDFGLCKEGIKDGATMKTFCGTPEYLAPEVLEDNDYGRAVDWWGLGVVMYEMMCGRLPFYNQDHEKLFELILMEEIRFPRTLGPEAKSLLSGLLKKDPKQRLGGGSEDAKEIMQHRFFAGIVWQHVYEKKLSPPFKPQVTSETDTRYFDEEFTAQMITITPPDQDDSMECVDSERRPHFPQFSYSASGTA

Row | Compound | kinase still bound, per cent of control (AAK1 (human)) [%] | kinase still bound, per cent of control (ACVR1B (human)) [%] | kinase still bound, per cent of control (ACVR2A (human)) [%] | kinase still bound, per cent of control (AKT1 (human)) [%] | kinase still bound, per cent of control (AXL (human)) [%] | kinase still bound, per cent of control (CAMKK1 (human)) [%] | kinase still bound, per cent of control (CDC42BPA (human)) [%] | kinase still bound, per cent of control (CDK14 (human)) [%] | kinase still bound, per cent of control (CDK5 (human)) [%] | kinase still bound, per cent of control (CSNK1D (human)) [%] | kinase still bound, per cent of control (DCLK1 (human)) [%] | kinase still bound, per cent of control (DDR1 (human)) [%] | kinase still bound, per cent of control (EPHA6 (human)) [%] | kinase still bound, per cent of control (EPHB3 (human)) [%] | kinase still bound, per cent of control (EPHB4 (human)) [%] | kinase still bound, per cent of control (FES (human)) [%] | kinase still bound, per cent of control (IGF1R (human)) [%] | kinase still bound, per cent of control (IKBKB (human)) [%] | kinase still bound, per cent of control (LRRK2 (human)) [%] | kinase still bound, per cent of control (MAP2K7 (human)) [%] | also measured
1 | O=c1cc(N2CCOCC2)oc2c(-c3cccc4c3sc3ccccc34)cccc12 | 87 | 91 | 96 | 89 | 100 | 85 | 94 | 100 | 100 | 89 | 84 | 100 | 89 | 100 | 87 | 93 | 97 | 100 | 100 | 100 | kinase still bound, per cent of control (MAP3K13 (human)): 100%; kinase still bound, per cent of control (MAPK8 (human)): 88%; kinase still bound, per cent of control (MAST1 (human)): 100%; kinase still bound, per cent of control (MET (human)): 63%; kinase still bound, per cent of control (MYLK2 (human)): 100%; kinase still bound, per cent of control (NEK5 (human)): 100%; kinase still bound, per cent of control (NUAK1 (human)): 100%; kinase still bound, per cent of control (NUAK2 (human)): 100%; kinase still bound, per cent of control (PAK6 (human)): 94%; kinase still bound, per cent of control (PKN2 (human)): 86%; kinase still bound, per cent of control (PLK4 (human)): 90%; kinase still bound, per cent of control (PRKCE (human)): 100%; kinase still bound, per cent of control (PRKD2 (human)): 100%; kinase still bound, per cent of control (PRKD3 (human)): 100%; kinase still bound, per cent of control (RIOK2 (human)): 22%; kinase still bound, per cent of control (RPS6KA2 KD1 (human)): 97%; kinase still bound, per cent of control (SIK3 (human)): 92%; kinase still bound, per cent of control (STK32C (human)): 54%; kinase still bound, per cent of control (TBK1 (human)): 84%; kinase still bound, per cent of control (TSSK1B (human)): 83%
2 | COc1cc(C(=O)N2CCC(N3CCN(C)CC3)CC2)ccc1Nc1ncc2c(n1)N(C)c1ccccc1C(=O)N2C | 84 | 100 | 100 | 79 | 100 | 73 | 100 | 81 | 81 | 81 | 4.2 | 100 | 89 | 100 | 100 | 84 | 96 | 89 | 0 | 100 | kinase still bound, per cent of control (MAP3K13 (human)): 100%; kinase still bound, per cent of control (MAPK8 (human)): 95%; kinase still bound, per cent of control (MAST1 (human)): 100%; kinase still bound, per cent of control (MET (human)): 100%; kinase still bound, per cent of control (MYLK2 (human)): 98%; kinase still bound, per cent of control (NEK5 (human)): 100%; kinase still bound, per cent of control (NUAK1 (human)): 47%; kinase still bound, per cent of control (NUAK2 (human)): 47%; kinase still bound, per cent of control (PAK6 (human)): 98%; kinase still bound, per cent of control (PKN2 (human)): 95%; kinase still bound, per cent of control (PLK4 (human)): 0%; kinase still bound, per cent of control (PRKCE (human)): 100%; kinase still bound, per cent of control (PRKD2 (human)): 59%; kinase still bound, per cent of control (PRKD3 (human)): 42%; kinase still bound, per cent of control (RIOK2 (human)): 100%; kinase still bound, per cent of control (RPS6KA2 KD1 (human)): 83%; kinase still bound, per cent of control (SIK3 (human)): 100%; kinase still bound, per cent of control (STK32C (human)): 100%; kinase still bound, per cent of control (TBK1 (human)): 97%; kinase still bound, per cent of control (TSSK1B (human)): 60%
3 | C=CC(=O)Nc1cc(-n2c(=O)ccc3cnc4ccc(-c5cn[nH]c5)cc4c32)ccc1C | 18 | 100 | 76 | 89 | 100 | 59 | 97 | 60 | 84 | 47 | 94 | 67 | 94 | 100 | 100 | 100 | 100 | 73 | 38 | 14 | kinase still bound, per cent of control (MAP3K13 (human)): 84%; kinase still bound, per cent of control (MAPK8 (human)): 1.9%; kinase still bound, per cent of control (MAST1 (human)): 85%; kinase still bound, per cent of control (MET (human)): 89%; kinase still bound, per cent of control (MYLK2 (human)): 89%; kinase still bound, per cent of control (NEK5 (human)): 100%; kinase still bound, per cent of control (NUAK1 (human)): 11%; kinase still bound, per cent of control (NUAK2 (human)): 46%; kinase still bound, per cent of control (PAK6 (human)): 96%; kinase still bound, per cent of control (PKN2 (human)): 82%; kinase still bound, per cent of control (PLK4 (human)): 66%; kinase still bound, per cent of control (PRKCE (human)): 100%; kinase still bound, per cent of control (PRKD2 (human)): 89%; kinase still bound, per cent of control (PRKD3 (human)): 98%; kinase still bound, per cent of control (RIOK2 (human)): 12%; kinase still bound, per cent of control (RPS6KA2 KD1 (human)): 72%; kinase still bound, per cent of control (SIK3 (human)): 78%; kinase still bound, per cent of control (STK32C (human)): 100%; kinase still bound, per cent of control (TBK1 (human)): 100%; kinase still bound, per cent of control (TSSK1B (human)): 87%
